Assays:
mice on HF/HS diet [1] = assay: Weight of mice on HF/HS diet; assay type: in vivo; settings: curative; TZD added to food
Protocol: (§1) We used adult mice (aged 6 weeks) of masculine gender fattened on a high fat/high sucrose diet (HF/HS). Feeding with the HF/HS diet began on mice aged 6 weeks and continued throughout the period of the study. The study was conducted along 2 axes: • prevention: the product was administered as soon as feeding began with the HF/HS diet; • management (curative): the product was administered 12 weeks after the start of the HF/HS diet. Total treatment time (preventive and curative): 23 weeks.
(§2) Each experimental group comprised 10 mice.

mice on HF/HS diet [2] = assay: Hepatic metabolism: transaminases and alkaline phosphatase (liver toxicity); assay type: in vivo; settings: plasma; considered very moderate, does not appear to reflect liver toxicity
mice on HF/HS diet [3] = assay: Blood parameters: plasma lipids (cholesterol, LDL, HDL, TG, FFA); assay type: in vivo
Protocol: as §1, §2
(§3) Subsequently the following were analysed: lipoprotein profile (by size exclusion chromatography); apolipoportein Al; lipid composition of the liver (liver triglycerides, cholesterol and free fatty acids); histological analysis of the liver and adipose tissue; staining of accumulated lipids in the liver.
The different cholesterol blood levels and different fractions were analysed using a HPLC method.

PEPCK (target PPARγ) = assay: mRNA analysis in the liver (Q-RT-PCR): PEPCK; assay type: in vivo, mice; settings: TZD
Protocol: (§4) the liver, the mRNA expressions of 8 genes were determined in 5 mice of each group using real-time Q-RT-PCR analysis.

mice on HF/HS diet [4] = assay: Intraperitoneal Glucose Tolerance Test (IPGTT); assay type: in vivo; settings: TZD; for Glucose resistance (IPGTT): preventive
From the text: Each study started at D-7 (i.e. 7 days before the start of the HF/HS diet) with an analysis of glucose tolerance using either an intra-peritoneal glucose tolerance test for some of the animals (n=5) or a sensitivity test to intravenous insulin for the other animals (n=5). At D=0 blood samples were taken to obtain basal condition values for all lipid and lipoprotein parameters, then the mice were randomly distributed irrespective of weight. The weight of each mouse and the quantity of food absorbed were measured twice a week. At weeks 3, 8, 15 and 23 the blood was collected after overnight fasting. At weeks 12 and 18 some of the animals (n=5) were subjected to an intra-peritoneal glucose tolerance test, the others (n=5) to a sensitivity test to intravenous insulin.
In addition this prevailing tolerance is often accompanied by insulin resistance. • Protocol: • fasted mice, • measurement of glycaemia at TO, • intra-peritoneal injection of glucose, • measurement of glycaemia 15, 30, 45, 60, 90, 120 and 180 min. after injection, • kinetics performed weeks 1, 12 and 18 in the preventive group and week 18 in the curative group.

[5] = tested on: PGC-1 (mitochondria biogenesis); assay: mRNA analysis in muscles and BAT: PGC-1; assay type: in vivo, mice; settings: muscle; TZD
Protocol: In the brown adipose tissue (BAT) and in the muscles, the mRNA expression of 3 genes was determined in 5 mice of each group by real-time Q-RTR-PCR analysis.

CYP7A1 = assay: mRNA analysis in the liver (Q-RT-PCR): CYP7A1; assay type: in vivo, mice; settings: TZD
Protocol: as §4

mice on HF/HS diet [6] = assay: Intra Peritoneal Insulin Sensitive Test (IPIST); assay type: in vivo; settings: preventive
From the text: The HF/HS diet induces a strong resistance to glucose. […] The test used is the Intra Peritoneal Insulin Sensitive Test—IPIST.

ACO (target PPARα) = assay: mRNA analysis in the liver (Q-RT-PCR): ACO; assay type: in vivo, mice; settings: TZD
Protocol: as §4

mice on HF/HS diet [7] = assay: Blood glucose and insulin analysis; assay type: in vivo
Protocol: as §1, §2, §3

[8] = tested on: ME, FAS, ACC (fatty acid synthesis); assay: mRNA analysis in the liver (Q-RT-PCR): ME, FAS, ACC; assay type: in vivo, mice; settings: TZD
Protocol: as §4

mice on HF/HS diet [9] = assay: Plasma lipoprotein profile (size exclusion chromatography); assay type: in vivo; settings: TZD
Protocol: as §1, §2, §3

[10] = curative, TZD 10 mg/kg/day, (3 W***)
[11] = curative, TZD, after 3 and 11 weeks
[12] = preventive, TZD 10 mg/kg/day, (3 W***)
[13] = preventive, TZD, after 3, 8, 15 and 23 weeks

Compound: CN(CCOc1ccc(CC2SC(=O)NC2=O)cc1)c1ccccn1 (stereo not shown) [TZD, Rosiglitazone]
- Weight loss of overweight mice (mice on HF/HS diet [1]): did not cause the overweight mice to lose weight
- Alkaline phosphatase (ALP) (mice on HF/HS diet [2]): increase
- Triglyceride level (mice on HF/HS diet [3]; curative, TZD): No change
- LDL (mice on HF/HS diet [3]; curative, TZD 10 mg/kg/day): ↓
- HDL (mice on HF/HS diet [3]; [10]): ↓↓
- Total cholesterol (mice on HF/HS diet [3]; [10]): ↓↓
- HDL cholesterol level (mice on HF/HS diet [3]; [11]): reduction
- LDL cholesterol level (mice on HF/HS diet [3]; [11]): reduction
- Total cholesterol (mice on HF/HS diet [3]; [11]): reduction
- LDL cholesterol level (mice on HF/HS diet [3]; preventive, TZD): downward trend
- TG (triglycerides) (mice on HF/HS diet [3]; preventive, TZD 10 mg/kg/day): ↓
- HDL (mice on HF/HS diet [3]; [12]): ↓↓
- Total cholesterol (mice on HF/HS diet [3]; [12]): ↓↓
- HDL cholesterol level (mice on HF/HS diet [3]; [13]): significant reduction
- Total cholesterol level (mice on HF/HS diet [3]; [13]): significant reduction
- Plasma levels of triglycerides (mice on HF/HS diet [3]; preventive, TZD, after 8 weeks, no additional reduction after 15 and 23 weeks): significantly reduced
- PEPCK (target PPARγ) mRNA (PEPCK (target PPARγ)): ↑
- Already established, diet-induced glucose resistance (mice on HF/HS diet [4]; curative): does not act
- Glucose resistance (IPGTT) (mice on HF/HS diet [4]; at 12 weeks): AUC value intermediate between HF/HS and normal diet
- Glucose resistance (IPGTT) (mice on HF/HS diet [4]; at 18 weeks, return to normal kinetics): completely cancels out the effects of the HF/HS diet
- PGC-1 (mitochondria biogenesis) mRNA [5]: ↑ (muscle)
- CYP7A1 (conversion oxysterol into biliary acids) mRNA (CYP7A1): ↑↑
- IPIST (mice on HF/HS diet [6]; TZD 10 mg/kg/day, (3 W***)): ↓↓
- Insulin sensitivity (IPIST) (mice on HF/HS diet [6]; TZD, (15 min)): restores sensitivity to insulin
- ACO (target PPARα) mRNA (ACO (target PPARα)): ↑
- GLUCOSE (mice on HF/HS diet [7]; curative, TZD 10 mg/kg/day, (3 W**)): ↓↓
- Glucose levels (mice on HF/HS diet [7]; [11]): dropped considerably
- “Constitutive” hyperglycaemia (mice on HF/HS diet [7]; preventive, TZD): return to normal
- GLUCOSE (mice on HF/HS diet [7]; preventive, TZD 10 mg/kg/day): ↓
- INSULIN (mice on HF/HS diet [7]; preventive, TZD 10 mg/kg/day): ↓
- Glucose level reduction (mice on HF/HS diet [7]; preventive, TZD, weeks 8, 15 and 23): no longer observed
- ME, FAS, ACC (fatty acid synthesis) mRNA [8]: ↑↑
- HDL and VLDL cholesterol fractions (mice on HF/HS diet [9]; curative, after 3 weeks): reduction
- HDL, LDL and VLDL cholesterol fractions (mice on HF/HS diet [9]; preventive, weeks 8 and 15): reduction
